Data on 24 molecules can be found in PubChem BioAssay AID330 (DTP/NCI, 2004).

This assay relates to P388 leukemia ip, CD2F1 mice, survival T/C. Put plainly: NCI In Vivo Anticancer Drug Screen. Data for tumor model P388 Leukemia (intraperitoneal) in CD2F1 (CDF1) mice. To be noted: endpoint: median survival time, higher = longer survival. The essentials:
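Mice carrying the transplanted tumor received test compound or vehicle. Survival was recorded in each group, and the value is the treated-group measurement divided by that of the vehicle-treated control group.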

Setting [1] is: dose: 100.0 mg/kg/injection, schedule: Q04DX002 (ip), vehicle: saline with Tween-80.
The mark [2] stands for this setting: dose: 200.0 mg/kg/injection, schedule: Q04DX002 (ip), vehicle: saline with Tween-80.
Where [3] appears, read: dose: 100.0 mg/kg/injection, schedule: Q01DX005 (ip), vehicle: saline with Tween-80.
[4] abbreviates: dose: 60.0 mg/kg/injection, schedule: Q01DX005 (ip), vehicle: Klucel (hydroxypropylcellulose) (HPC).
The mark [5] stands for this setting: dose: 120.0 mg/kg/injection, schedule: Q01DX005 (ip), vehicle: Klucel (hydroxypropylcellulose) (HPC).
Where [6] appears, read: dose: 240.0 mg/kg/injection, schedule: Q01DX005 (ip), vehicle: Klucel (hydroxypropylcellulose) (HPC).
The mark [7] stands for this setting: dose: 400.0 mg/kg/injection, schedule: Q04DX003 (ip), vehicle: Klucel (hydroxypropylcellulose) (HPC).
[8] abbreviates: dose: 50.0 mg/kg/injection, schedule: Q01DX009 (ip), vehicle: saline.
[9] abbreviates: dose: 100.0 mg/kg/injection, schedule: Q01DX009 (ip), vehicle: saline.
[10] abbreviates: dose: 50.0 mg/kg/injection, schedule: Q01DX005 (ip), vehicle: Klucel (hydroxypropylcellulose) (HPC).
[11] abbreviates: dose: 100.0 mg/kg/injection, schedule: Q01DX005 (ip), vehicle: Klucel (hydroxypropylcellulose) (HPC).
The mark [12] stands for this setting: dose: 200.0 mg/kg/injection, schedule: Q01DX005 (ip), vehicle: Klucel (hydroxypropylcellulose) (HPC).
The mark [13] stands for this setting: dose: 200.0 mg/kg/injection, schedule: Q01DX009 (ip), vehicle: saline with Tween-80.
[14] abbreviates: dose: 60.0 mg/kg/injection, schedule: Q01DX005 (ip), vehicle: saline with Tween-80.

Where “and” joins values, the source holds several entries; their conditions need not be identical. Equal entries are not always repeated. Toxic doses and inconclusive results are not listed.

As for `O=C1CNC(=O)C12C(=O)CNC2=O`, the T/C runs as follows: under setting [1], 98 % of control; under setting [2], 96 % of control; (dose: 400.0 mg/kg/injection, schedule: Q04DX002 (ip), vehicle: saline with Tween-80) 98 % of control.

`CC1(C)C(=O)c2cc3ccccc3nc2-c2ccccc21`: the T/C (dose: 50.0 mg/kg/injection, schedule: Q01DX005 (ip), vehicle: saline with Tween-80) was 100 % of control; the T/C under setting [3] was 99 % of control; the T/C (dose: 200.0 mg/kg/injection, schedule: Q01DX005 (ip), vehicle: saline with Tween-80) is 105 % of control.

With `CC1(C)CC(Nc2ccccc2)=CC(=Nc2ccccc2)S1`, the T/C under setting [4] was 110 % of control, the T/C under setting [5] was 92 % of control and the T/C under setting [6] is 89 % of control.

`CNC(=O)OCc1c(COC(=O)NC)c2n(c1C)CS(=O)(=O)C2`: the T/C (dose: 25.0 mg/kg/injection, schedule: Q01DX005 (ip), vehicle: saline with Tween-80) was 122 % of control; the T/C under setting [3] is 204 % of control and 211 % of control.

On to `CCN(CC)C(=O)OC1c2ccccc2C2CC1c1ccccc1C2O` (configuration not stated), for which the T/C is 97 % of control (dose: 100.0 mg/kg/injection, schedule: Q04DX003 (ip), vehicle: Klucel (hydroxypropylcellulose) (HPC)); 102 % of control (dose: 200.0 mg/kg/injection, schedule: Q04DX003 (ip), vehicle: Klucel (hydroxypropylcellulose) (HPC)); 89 % of control under setting [7].

As to `CC(NNC(=S)N1CCN(c2ccccn2)CC1)c1cc2ccccc2cn1` (configuration not stated), the T/C by setting is: (dose: 12.5 mg/kg/injection, schedule: Q04DX003 (ip), vehicle: Klucel (hydroxypropylcellulose) (HPC)) 96 % of control; (dose: 25.0 mg/kg/injection, schedule: Q04DX003 (ip), vehicle: Klucel (hydroxypropylcellulose) (HPC)) 88 % of control; (dose: 50.0 mg/kg/injection, schedule: Q04DX003 (ip), vehicle: Klucel (hydroxypropylcellulose) (HPC)) 88 % of control; under setting [7], 86 % of control.

For `COc1ccc(N2C(=O)C(=O)C(C(C)=O)C2=O)cc1` (configuration not stated), the T/C under setting [1] was 100 % of control and the T/C under setting [2] was 94 % of control.

Consider `CC1=NNC2(CCCCC2)C1`, for which the T/C (dose: 12.5 mg/kg/injection, schedule: Q01DX009 (ip), vehicle: water) is 113 % of control; the T/C (dose: 25.0 mg/kg/injection, schedule: Q01DX009 (ip), vehicle: water) was 103 % of control; the T/C (dose: 50.0 mg/kg/injection, schedule: Q01DX009 (ip), vehicle: water) was 94 % of control; the T/C (dose: 100.0 mg/kg/injection, schedule: Q01DX009 (ip), vehicle: water) is 111 % of control; the T/C (dose: 200.0 mg/kg/injection, schedule: Q01DX009 (ip), vehicle: water) was 106 % of control.

For `O=C(/C=C/c1cccs1)c1ccc(Nc2ccnc3cc(Cl)ccc23)cc1`, the T/C by setting is: (dose: 100.0 mg/kg/injection, schedule: Q01DX001 (ip), vehicle: saline with Tween-80) 94 % of control; (dose: 200.0 mg/kg/injection, schedule: Q01DX001 (ip), vehicle: saline with Tween-80) 98 % of control; (dose: 400.0 mg/kg/injection, schedule: Q01DX001 (ip), vehicle: saline with Tween-80) 94 % of control.

For the molecule `CN=C(C)NC1CCCCC1`, the T/C by setting is: under setting [8], 96 % of control; under setting [9], 96 % of control.

For the molecule `CC(=O)OCN(C)N=Nc1ccc(C(N)=O)cc1`, the T/C reads like this: under setting [4], 92 % of control; under setting [5], 95 % of control; under setting [6], 95 % of control.

On to `CCN(CC)C(=S)C(C)=C(Sc1ccccc1)Sc1ccccc1`, for which the T/C by setting is: under setting [10], 100 % of control; under setting [11], 99 % of control; under setting [12], 99 % of control.

`Cn1nnnc1N/N=C(\Br)c1ccccc1`: the T/C by setting is: under setting [13], 104 % of control; (dose: 400.0 mg/kg/injection, schedule: Q01DX009 (ip), vehicle: saline with Tween-80) 104 % of control.

Turning to `O=C(CCC(=O)Nc1cccc([N+](=O)[O-])c1)CC(=O)c1ccc(Cl)cc1`, the T/C by setting is: under setting [14], 96 % of control; (dose: 120.0 mg/kg/injection, schedule: Q01DX005 (ip), vehicle: saline with Tween-80) 105 % of control; (dose: 240.0 mg/kg/injection, schedule: Q01DX005 (ip), vehicle: saline with Tween-80) 96 % of control.

On to `CC1(O)Cn2c(=O)c3cc4ccccc4cc3c(=O)n2CC1(C)Br` (configuration not stated), for which the T/C runs as follows: (dose: 50.0 mg/kg/injection, schedule: Q04DX002 (ip), vehicle: DMSO) 105 % of control; (dose: 100.0 mg/kg/injection, schedule: Q04DX002 (ip), vehicle: DMSO) 101 % of control; (dose: 200.0 mg/kg/injection, schedule: Q04DX002 (ip), vehicle: DMSO) 101 % of control.

For `CC12OC1C(=O)C=CC2=O` (configuration not stated), the T/C (dose: 5.0 mg/kg/injection, schedule: Q04DX002 (ip), vehicle: saline with Tween-80) is 111 % of control.

`CCOP(=O)(OCC)C(C)NC(=O)C(C)NC(=O)c1cn(CC)c2nc(C)ccc2c1=O` (configuration not stated): the T/C (dose: 100.0 mg/kg/injection, schedule: Q04DX002 (ip), vehicle: saline) was 97 % of control; the T/C (dose: 200.0 mg/kg/injection, schedule: Q04DX002 (ip), vehicle: saline) was 97 % of control; the T/C (dose: 400.0 mg/kg/injection, schedule: Q04DX002 (ip), vehicle: saline) is 95 % of control.

As to `O=C(CCc1ccc(O)c(O)c1)c1ccc(O)c(O)c1O`, the T/C runs as follows: (dose: 4.0 mg/kg/injection, schedule: Q01DX009 (ip), vehicle: saline) 111 % of control; (dose: 8.0 mg/kg/injection, schedule: Q01DX009 (ip), vehicle: saline) 104 % of control; (dose: 16.0 mg/kg/injection, schedule: Q01DX009 (ip), vehicle: saline) 102 % of control; (dose: 32.0 mg/kg/injection, schedule: Q01DX009 (ip), vehicle: saline) 114 % of control.

For the molecule `C/C=C/N1C(=O)C2C=CC1C(C(=O)OC)=C2C(=O)OC` (configuration not stated), the T/C is 100 % of control (dose: 100.0 mg/kg/injection, schedule: Q01DX001 (ip), vehicle: saline); 99 % of control (dose: 200.0 mg/kg/injection, schedule: Q01DX001 (ip), vehicle: saline); 94 % of control (dose: 400.0 mg/kg/injection, schedule: Q01DX001 (ip), vehicle: saline).

As to `N#Cc1c(C(F)(F)F)cc(-c2cccs2)nc1SC(C(=O)Nc1cc(C(F)(F)F)cc(C(F)(F)F)c1)c1ccccc1` (configuration not stated), the T/C was 106 % of control under setting [10], 88 % of control under setting [11] and 90 % of control under setting [12].

As to `c1cc(-c2nnc3ccccn23)c2c(-c3nnc4ccccn34)cccc2c1`, the T/C (dose: 50.0 mg/kg/injection, schedule: Q01DX009 (ip), vehicle: saline with Tween-80) was 100 % of control; the T/C (dose: 100.0 mg/kg/injection, schedule: Q01DX009 (ip), vehicle: saline with Tween-80) was 97 % of control; the T/C under setting [13] is 97 % of control.

Regarding `Oc1c(Cl)c2nc3ccccc3nc2c2ccccc12`, the T/C (dose: 15.0 mg/kg/injection, schedule: Q01DX005 (ip), vehicle: saline with Tween-80) was 100 % of control; the T/C (dose: 30.0 mg/kg/injection, schedule: Q01DX005 (ip), vehicle: saline with Tween-80) is 102 % of control; the T/C under setting [14] was 88 % of control and 98 % of control.

With `CCCN1C=C(C(=O)OCC)C(N)=C(C#N)/C1=C\C=C(/C#N)C(=O)OCC`, the T/C is, setting by setting: (dose: 6.25 mg/kg/injection, schedule: Q01DX001 (ip), vehicle: Klucel (hydroxypropylcellulose) (HPC)) 89 % of control; (dose: 12.5 mg/kg/injection, schedule: Q01DX001 (ip), vehicle: Klucel (hydroxypropylcellulose) (HPC)) 87 % of control; (dose: 25.0 mg/kg/injection, schedule: Q01DX001 (ip), vehicle: Klucel (hydroxypropylcellulose) (HPC)) 86 % of control; (dose: 50.0 mg/kg/injection, schedule: Q01DX001 (ip), vehicle: Klucel (hydroxypropylcellulose) (HPC)) 88 % of control; (dose: 100.0 mg/kg/injection, schedule: Q01DX001 (ip), vehicle: Klucel (hydroxypropylcellulose) (HPC)) 90 % of control.

Regarding `CS(=O)(=O)C12CCCN1C(=O)C1CCCN1C2=O` (configuration not stated), the T/C by setting is: under setting [8], 99 % of control; under setting [9], 102 % of control; (dose: 200.0 mg/kg/injection, schedule: Q01DX009 (ip), vehicle: saline) 90 % of control.
